In patent US6555091B1, “Polypeptide capable of reacting with antibodies of patients suffering from multiple sclerosis and uses” (Bio Merieux, priority 1997, dated 2003):
No end group written: not given here.

System: IgG of sera from MS patients and healthy individuals
Assay: ELISA of biotinylated synthetic peptides, IgG response of individual human sera
Format: binding
Conditions: for MEAN / OD 1 / OD 2 / OD 3 / BASELINE (mark: above cut-off): 1/100
Protocol: Depending on the information obtained from the preceding examples, the hexapeptides SEQ ID NO: 3 and SEQ ID NO: 4 were synthesized and biotinylated according to the method described in Patent Application No. EP 93420183 with the following modifications: the peptide still bound to the resin is selectively deprotected at the N-terminal position. After overnight incubation with the biotin-NHS at 50% in DMF, the peptide is then cleaved from the resin and treated as described in the patent cited above.
The wells of a Maxisorb (trade name, Nunc) microtiter plate are saturated with 100 μl of a 50 mM NaHCO3 solution, pH 9.6, containing 10 μg/ml of streptavidin for 2 hours at 37° C. The plate is washed with TBS/0.05% Tween 20 buffer. The wells are then saturated with 250 μl of wash buffer supplemented with 10% goat serum for 1 hour at 37° C. and then washed as described above.
The sera to be analyzed are diluted 1/100 in saturation buffer, supplemented with 0.05% Tween 20 and incubated for 2 hours at 37° C. After washing, a solution of peroxidase-labeled anti-human immunoglobulin G goat antibody conjugate (marketed by Jackson Immuno Research Laboratories Inc.) is added at the dilution of 1/10,000 and the plates are incubated for 1 hour at 37° C. After washes, the ortho-phenylenediamine (OPD) substrate is added and the reaction is stopped after 10 minutes by adding 50 μl of H2SO4. The optical density is read at 492 nm.
In a test carried out with 1/100 dilutions of 11 English sera from MS patients at the remission stage and 4 negative English sera, the peptides SEQ ID NOs: 3 and 4 are recognized by 4 sera out of 11 which give a positive IgG signal compared with the negative serum which gave the highest signal.

[1] = IgG, serum 33/6 (MS+, remission)
[2] = IgG, serum 33/8 (MS+, remission)
[3] = IgG, serum 33/18 (MS+, remission)
[4] = IgG, serum No. 12 (MS−, healthy)
[5] = IgG, serum No. 13 (MS−, healthy)
[6] = IgG, serum No. 14 (MS−, healthy)
[7] = IgG, serum No. 15 (MS−, healthy)
[8] = IgG, serum QS 2 (MS+, remission)
[9] = IgG, serum QS 3 (MS+, remission)
[10] = IgG, serum QS 4 (MS+, remission)
[11] = IgG, serum QS 6 (MS+, remission)
[12] = IgG, serum QS 7 (MS+, remission)
[13] = IgG, serum QS 8 (MS+, remission)
[14] = IgG, serum QS 11 (MS+, remission)
[15] = IgG, serum QS 12 (MS+, remission)

LQQAVF [SEQ ID NO: 3] was tested, and the “MS sera giving a positive IgG signal compared with the negative serum which gave the highest signal” value (1/100 dilutions of 11 sera from MS patients at the remission stage, 4 negative sera) was 4 sera out of 11, the “MS sera recognizing the peptide significantly, cut-off mean of negative sera plus 3 times the standard deviation” value (IgG, 1/100 dilutions of 11 MS remission sera, 4 negative sera) was 3 sera out of 11 and the BASELINE (IgG, cut-off, mean of negative sera plus 3 times the standard deviation) was 815 optical density (×1000). For the same substance, the MEAN [1] was 587 optical density (×1000), the “OD 1” value [1] was 535 optical density (×1000) and the “OD 2” value [1] was 599 optical density (×1000). The “OD 3” value [1] was 626 optical density (×1000), the “BASELINE (mark: above cut-off)” value [2] was “X (the mean of the values obtained with the negative sera is calculated and 3 times the standard deviation is added in order to determine a cut-off)” and the MEAN [2] was 1067 optical density (×1000). For the same substance, the “OD 1” value [2] was 990 optical density (×1000), the “OD 2” value [2] was 941 optical density (×1000) and the “OD 3” value [2] was 1271 optical density (×1000). The MEAN [3] was 395 optical density (×1000), the “OD 1” value [3] was 601 optical density (×1000) and the “OD 2” value [3] was 339 optical density (×1000). The “OD 3” value [3] was 246 optical density (×1000), the MEAN [4] was 639 optical density (×1000) and the “OD 1” value [4] was 550 optical density (×1000). For the same substance, the “OD 2” value [4] was 640 optical density (×1000), the “OD 3” value [4] was 726 optical density (×1000) and the MEAN [5] was 377 optical density (×1000). For the same substance, the “OD 1” value [5] was 366 optical density (×1000), the “OD 2” value [5] was 369 optical density (×1000) and the “OD 3” value [5] was 407 optical density (×1000). The MEAN [6] was 307 optical density (×1000), the “OD 1” value [6] was 367 optical density (×1000) and the “OD 2” value [6] was 285 optical density (×1000). For the same substance, the “OD 3” value [6] was 270 optical density (×1000), the MEAN [7] was 452 optical density (×1000) and the “OD 1” value [7] was 439 optical density (×1000). For the same substance, the “OD 2” value [7] was 496 optical density (×1000), the “OD 3” value [7] was 422 optical density (×1000) and the MEAN [8] was 309 optical density (×1000). For the same substance, the “OD 1” value [8] was 294 optical density (×1000), the “OD 2” value [8] was 339 optical density (×1000) and the “OD 3” value [8] was 293 optical density (×1000). For the same substance, the MEAN [9] was 727 optical density (×1000), the “OD 1” value [9] was 618 optical density (×1000) and the “OD 2” value [9] was 784 optical density (×1000). For the same substance, the “OD 3” value [9] was 779 optical density (×1000), the “BASELINE (mark: above cut-off)” value [10] was “X (the mean of the values obtained with the negative sera is calculated and 3 times the standard deviation is added in order to determine a cut-off)” and the MEAN [10] was 1346 optical density (×1000). The “OD 1” value [10] was 1161 optical density (×1000), the “OD 2” value [10] was 1293 optical density (×1000) and the “OD 3” value [10] was 1583 optical density (×1000). The MEAN [11] was 325 optical density (×1000), the “OD 1” value [11] was 306 optical density (×1000) and the “OD 2” value [11] was 263 optical density (×1000). The “OD 3” value [11] was 407 optical density (×1000), the “BASELINE (mark: above cut-off)” value [12] was “X (the mean of the values obtained with the negative sera is calculated and 3 times the standard deviation is added in order to determine a cut-off)” and the MEAN [12] was 1355 optical density (×1000). For the same substance, the “OD 1” value [12] was 1307 optical density (×1000), the “OD 2” value [12] was 1298 optical density (×1000) and the “OD 3” value [12] was 1461 optical density (×1000). For the same substance, the MEAN [13] was 615 optical density (×1000), the “OD 1” value [13] was 664 optical density (×1000) and the “OD 2” value [13] was 635 optical density (×1000). The “OD 3” value [13] was 545 optical density (×1000), the MEAN [14] was 235 optical density (×1000) and the “OD 1” value [14] was 429 optical density (×1000). For the same substance, the “OD 2” value [14] was 169 optical density (×1000), the “OD 3” value [14] was 108 optical density (×1000) and the MEAN [15] was 398 optical density (×1000). The “OD 1” value [15] was 405 optical density (×1000), the “OD 2” value [15] was 472 optical density (×1000) and the “OD 3” value [15] was 316 optical density (×1000).
